Legend:
[1] = tested on: LXR ligand-binding domain; experiment: TR-FRET assay of co-activator and co-repressor peptide recruitment; assay type: biochemical
Experimental: (§1) To elucidate mechanisms of inverse agonism by the novel ligands, TR-FRET experiments were conducted to determine the effects of 1E5 and 3A4 on the recruitment of NR co-activators and co-repressors. […] In addition to their functions as inverse agonists, extended treatments with 1E5 and 3A4 also destabilized or decreased LXR proteins.
(§2) The synthesis and characterization of KD-01-39, a derivative of 3A4, have not been described previously.

[2] = tested on: PDAC cell lines; experiment: tetrazolium salt reduction (WST) assay in PDAC cell lines; assay type: cell-based, human; settings: WST screen, three human pancreatic cancer cell lines
Experimental: To determine the effects of LXR ligands on PDAC cell proliferation, cells were treated with synthetic LXR agonist GW3965 and live cells were quantified using trypan blue exclusion assays. […] FIGS. 8A, 8B, and 8C show dose-dependent decreases in cell proliferation in BxPC-3, Mia-PaCa-2, and PANC-1, respectively upon treatment with increasing GW3965 concentrations. […] Clonogenic assays were also employed to evaluate the effects of long-term LXR ligand treatment on cell proliferation and colony formation. […] These findings indicate that LXRs are involved in PDAC cell proliferation and targeting LXRs with ligands perturb their normal functions in cell proliferation.
(§3) The initial identification and subsequent characterization of the two novel LXR ligands and their derivative compounds was carried out in screens in three human pancreatic cancer cell and one non-transformed human pancreatic epithelial cell line in three or more replicate experiments for each cell line using the WST tetrazolium salt reduction assays.

[3] = tested on: LXR target genes SREBF1c, ABCA1, and ABCG1; experiment: expression of LXR target genes in pancreatic cancer cell lines; assay type: cell-based, human
From the text: To characterize the activity of the newly discovered ligands, the expression of LXR target genes SREBF1c, ABCA1, and ABCG1 was examined following treatment with vehicle, synthetic agonist GW3965, and Compounds 1E5 and 3A4. […] Basal expression of SREBF1c, the canonical LXR target gene involved in the regulation of glucose and lipid metabolism, was disrupted by the addition of novel LXR ligands, whereas their expression was induced following treatment with synthetic agonist GW3965 in all three pancreatic cancer cell lines tested, whereas the effects on ABCA1 and ABCG1 varied between the two novel ligands and across the cell lines.
as §1

[4] = tested on: MDA-MB-231; experiment: expression of LXR target genes in breast cancer cells; assay type: cell-based; settings: MDA-MB-231, triple-negative
From the text: (§4) The inhibitory effects of LXR ligands in breast cancer cells have been shown previously. […] The observed decreases in LXR protein levels were not affected by proteasome inhibitor MG132.

[5] = tested on: MCF-7; experiment: as above; assay type: cell-based; settings: MCF-7, ER-positive
From the text: as §4

[6] = tested on: genes involved in ferroptosis; experiment: quantitative PCR of genes involved in ferroptosis; assay type: cell-based, human
From the text: Expression profiles of ferroptosis genes in RNAseq data following 1E5 treatment were also consistent with its pro-ferroptotic actions. […] Polyamines are amino-acid derived polycationic alkylamines that are required for the growth of cells. SAT1 catalyzes the acetylation of spermidine and spermine to form N-acetylspermidine and N-acetylspermine respectively. […] SAT1 induces ferroptosis by upregulating the peroxidation of PUFA arachidonic acid. Ceramides are sphingolipids consisting of sphingosine and fatty acid acyl chain. Cellular stress leads to upregulation of ceramide synthesis which mediate caspase-dependent apoptosis. Accumulation of ceramides/hexosylceramides in the mitochondria leads to the formation of channel like structures in the mitochondrial outer membrane which increases the permeability of pro-apoptotic proteins such as cytochrome c. ER stress is also known to activate de-novo synthesis of ceramides and induce apoptosis by increasing the flow of Ca ions and upregulating the unfolded protein stress response.

[7] = tested on: HPNE cells; experiment: growth of non-transformed pancreatic epithelial cells (WST screen; FIG. 32D); assay type: cell-based, human; settings: WST screen
Experimental: as §3, §2

[8] = tested on: KPC tumor cells; experiment: growth of KPC tumor cells from mouse model of PDAC; assay type: cell-based
From the text: The effects of the ligands and derivatives on the growth of PDAC cells were further validated by cell counting and clonogenic assays.

[9] = tested on: PDAC cells; experiment: enzymatic assay of glutamate levels; assay type: cell-based, human
Experimental: To further characterize the mechanisms of action of novel LXR modulators 1E5 and 3A4, metabolomic and transcriptomic analysis of pancreatic cancer cells were conducted in response to treatment. […] PDAC tumors have altered metabolism to support its growth and survival. Previous studies have reported that Kras upregulates the non-canonical use of glutamine to maintain NADPH/NADP+ ratio which in turn regulates redox homeostasis. This unconventional use of glutamine by PDAC cells fuel cancer cell proliferation and survival. Glutamine metabolism in PDAC has two unique functions: 1. Glutamine-derived Glutamate is used for glutathione (GSH) biosynthesis. 2. Glutamine facilitates generation of reducing equivalents in the form of NADPH. In PDAC mitochondria, glutamine is converted to glutamate by glutaminase enzyme (GLS1). This glutamine derived glutamate is conventionally converted to alpha-ketoglutarate by glutamate dehydrogenase (GLUD1) to fuel citric acid cycle. However, in PDAC cells glutamate is converted to aspartate in cytosol which is converted to malic acid and NADPH is produced during this process. This process is essential to maintain redox homeostasis in the tumor. However, this non-canonical use of glutamine is dispensable in non-malignant cells. […]

## O=c1cc(-c2ccccc2)nc(Nc2cccc(C(F)(F)F)c2)[nH]1 [Compound 1E5, 6-phenyl-2-{[3-(trifluoromethyl)phenyl]amino}-3,4-dihydropyrimidin-4-one]
[1]; co-activator (D22) peptide
  co-activator peptide binding to LXR ligand-binding domain: did not affect co-activator peptide binding
[1]; co-repressor (NCOR and SMRT-ID2) peptides
  binding of NCOR and SMRT co-repressor peptides: increased the binding
[2]
  human pancreatic cancer cells growth: effective in inhibiting human pancreatic cancer cells growth
[3]; all three pancreatic cancer cell lines
  basal expression of SREBF1c: disrupted
[3]; pancreatic cancer cells
  expression of FASN, SCD, and ACC: decreased the expression
[3]; three pancreatic cancer cell lines
  expression of LXR target genes: reducing the expression of LXR target genes
[4]
  expression of LXR target genes: generally down-regulated
[5]
  expression of LXR target genes: generally down-regulated
[6]
  expression of GPX4 and other negative regulators of ferroptosis (STMN1, RRM2): decreased the expression
  expression of SAT1: increases the expression
[7]
  activity against non-transformed HPNE cells: little activity
[8]
  growth of KPC tumor cells: blocked the growth
[9]; 1E5 plus glutaminase inhibitor BPTES
  glutamate levels, combination treatment with BPTES: synergistic effects on reducing the glutamate levels
[9]; treated for 48 hours
  intracellular levels of glutamate: significantly reduced

From patent US20220273658A1, “SMALL MOLECULE LIVER X RECEPTOR MODULATORS AND USES THEREOF” (University of Houston System, priority 2019, published 2022)
